Results on 16 compounds are retold here after patent US12129312B2, “Peptide compound, application thereof and composition containing same” (priority 2017, dated 2024).

The structures appear in SMILES notation. Numbered stars: 1 amine (or outer) side, 2 acyl side, 3 side chain; on linkers, the order of the positions; unused ones are H or OH. Square brackets hold non-standard residues; d marks the D form. Peptide text beside a SMILES is read from it. * marks the point of attachment. PEG8 = NCCOCCOCCOCCOCCOCCOCCOCCOCCC(=O)O; X6 = CCCN([C@@H](CC(C)C)C(=O)[*:2])[*:1]; 2Nal = N[C@@H](Cc1ccc2ccccc2c1)C(=O)O; X10 = CN(C)[C@H](Cc1ccc(O)cc1)C(=O)*; dNMeY = CN[C@H](Cc1ccc(O)cc1)C(=O)O; Cyclohexylacetyl = O=C(CC1CCCCC1)*; Hydrocinnamoyl = O=C(CCc1ccccc1)*; Palmitoyl = CCCCCCCCCCCCCCCC(=O)*; NEtLeu = CCN[C@@H](CC(C)C)C(=O)O; Myristoyl = CCCCCCCCCCCCCC(=O)*; Tic = O=C(O)[C@@H]1Cc2ccccc2CN1; dTic = O=C(O)[C@H]1Cc2ccccc2CN1; NMeL = CN[C@@H](CC(C)C)C(=O)O; NMehSer = CN[C@@H](CCO)C(=O)O; Lauroyl = CCCCCCCCCCCC(=O)*; d(hSer) = N[C@H](CCO)C(=O)O; NMeS = CN[C@@H](CO)C(=O)O; Hexanoyl = CCCCCC(=O)*; βAla = NCCC(=O)O

The test concerns the target T1, human Chemokine like receptor 1 (Homo sapiens, UniProt Q99788).
T1 construct: host or cells: U2OS (Tango CMKLR1-bla U2OS)
T1 sequence (Q99788 1-373): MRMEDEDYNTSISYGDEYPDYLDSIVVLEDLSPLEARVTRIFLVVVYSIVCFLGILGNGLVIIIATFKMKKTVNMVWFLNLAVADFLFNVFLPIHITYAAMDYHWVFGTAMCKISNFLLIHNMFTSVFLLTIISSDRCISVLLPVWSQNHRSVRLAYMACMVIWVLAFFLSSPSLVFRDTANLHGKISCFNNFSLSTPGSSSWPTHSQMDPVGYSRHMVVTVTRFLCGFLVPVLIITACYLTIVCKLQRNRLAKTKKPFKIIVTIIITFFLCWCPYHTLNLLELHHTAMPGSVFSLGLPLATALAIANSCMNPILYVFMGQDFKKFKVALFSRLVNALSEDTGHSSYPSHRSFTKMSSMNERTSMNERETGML
In words: Activation of Tango CMKLR1-bla U2OS cells (beta-lactamase FRET reporter). Format: cell-based. Conditions: determination by the method of Effect Embodiment 1; read-out: EC50. Put shortly:
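Agonist mode in Tango CMKLR1-bla U2OS cells, 10000 cells/well seeded overnight, then 10-point 3-fold compound dilutions from 10 mM DMSO stock applied for 4 h at 37 °C, 5% CO2. Beta-lactamase reporter read with CCF4-AM FRET substrate; peptide (D-Tyr)-Phe-Leu-Pro-(D-Ser)-Gln-Phe-(D-Ala)-Tic-Ser served as positive control.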

Regarding `CC(C)C[C@@H](C(=O)N1CCC[C@H]1C(=O)N[C@H](CCO)C(=O)N[C@@H](CCC(N)=O)C(=O)N[C@@H](Cc1ccccc1)C(=O)N[C@H](C)C(=O)N1Cc2ccccc2C[C@H]1C(=O)N[C@@H](CO)C(=O)O)N(C)C(=O)[C@H](Cc1ccccc1)NC(=O)[C@H](N)Cc1ccc(O)cc1` [YW-175, (D-Tyr)-Phe-(NMe-Leu)-Pro-(D-HoSer)-Gln-Phe-(D-Ala)-Tic-Ser-OH] (H-[dY]F[NMeL]P[d(hSer)]QF[dA][Tic]S-OH; N-terminus assumed), the EC50 was 91 nM.
For `CC(C)C[C@@H](C(=O)N1CCC[C@H]1C(=O)N[C@H](CO)C(=O)N[C@@H](CCC(N)=O)C(=O)N[C@@H](Cc1ccccc1)C(=O)N[C@H](C)C(=O)N1Cc2ccccc2C[C@H]1C(=O)N(C)[C@@H](CCO)C(=O)O)N(C)C(=O)[C@H](Cc1ccccc1)NC(=O)[C@H](N)Cc1ccc(O)cc1` [YW-177, (D-Tyr)-Phe-(NMe-Leu)-Pro-(D-Ser)-Gln-Phe-(D-Ala)-Tic-(NMe-HoSer)-OH] (H-[dY]F[NMeL]P[dS]QF[dA][Tic][NMehSer]-OH), the EC50 came to 25 nM.
The value for `CCCCCCCCCCCCCCCC(=O)NCCOCCOCCOCCOCCOCCOCCOCCOCCC(=O)NCC(=O)NCC(=O)N(C)[C@H](Cc1ccc(O)cc1)C(=O)N[C@@H](Cc1ccccc1)C(=O)N(C)[C@@H](CC(C)C)C(=O)N1CCC[C@H]1C(=O)N[C@H](CO)C(=O)N[C@@H](CCC(N)=O)C(=O)N[C@@H](Cc1ccc2ccccc2c1)C(=O)N[C@H](C)C(=O)N1Cc2ccccc2C[C@H]1C(=O)N(C)[C@@H](CO)C(=O)O` [YW-178, Palm-PEG8-Gly-Gly-(D-NMe-Tyr)-Phe-(NMe-Leu)-Pro-(D-Ser)-Gln-2Nal-(D-Ala)-Tic-(NMe-Ser)] ({Palmitoyl-PEG8}-GG[dNMeY]F[NMeL]P[dS]Q[2Nal][dA][Tic][NMeS]-OH) was 2.1 nM.
The value for `CCCCCCCCCCCCCCCC(=O)NCCOCCOCCOCCOCCOCCOCCOCCOCCC(=O)NCCC(=O)NCCC(=O)N(C)[C@H](Cc1ccc(O)cc1)C(=O)N[C@@H](Cc1ccccc1)C(=O)N(C)[C@@H](CC(C)C)C(=O)N1CCC[C@H]1C(=O)N[C@H](CO)C(=O)N[C@@H](CCC(N)=O)C(=O)N[C@@H](Cc1ccc2ccccc2c1)C(=O)N[C@H](C)C(=O)N1Cc2ccccc2C[C@H]1C(=O)N(C)[C@@H](CO)C(=O)O` [YW-179, Palm-PEG8-(beta-Ala)-(beta-Ala)-(D-NMeTyr)-Phe-(NMe-Leu)-Pro-(D-Ser)-Gln-2Nal-(D-Ala)-Tic-(NMe-Ser)] ({Palmitoyl-PEG8-βAla-βAla}-[dNMeY]F[NMeL]P[dS]Q[2Nal][dA][Tic][NMeS]-OH) was 2.1 nM; that for `CCCCCCCCCCCCCC(=O)NCCOCCOCCOCCOCCOCCOCCOCCOCCC(=O)NCCC(=O)NCCC(=O)N(C)[C@H](Cc1ccc(O)cc1)C(=O)N[C@@H](Cc1ccccc1)C(=O)N(C)[C@@H](CC(C)C)C(=O)N1CCC[C@H]1C(=O)N[C@H](CO)C(=O)N[C@@H](CCC(N)=O)C(=O)N[C@@H](Cc1ccc2ccccc2c1)C(=O)N[C@H](C)C(=O)N1Cc2ccccc2C[C@H]1C(=O)N(C)[C@@H](CO)C(=O)O` [YW-180, Tetradecanoyl-PEG8-βAla-βAla-(D-NMe-Tyr)-Phe-(NMe-Leu)-Pro-(D-Ser)-Gln-2Nal-(D-Ala)-Tic-(NMe-Ser)] ({Myristoyl-PEG8-βAla-βAla}-[dNMeY]F[NMeL]P[dS]Q[2Nal][dA][Tic][NMeS]-OH) was 1.4 nM.
As for `CCCCCCCCCCCC(=O)NCCOCCOCCOCCOCCOCCOCCOCCOCCC(=O)NCCC(=O)NCCC(=O)N(C)[C@H](Cc1ccc(O)cc1)C(=O)N[C@@H](Cc1ccccc1)C(=O)N(C)[C@@H](CC(C)C)C(=O)N1CCC[C@H]1C(=O)N[C@H](CO)C(=O)N[C@@H](CCC(N)=O)C(=O)N[C@@H](Cc1ccc2ccccc2c1)C(=O)N[C@H](C)C(=O)N1Cc2ccccc2C[C@H]1C(=O)N(C)[C@@H](CO)C(=O)O` [YW-181, Dodecanoyl-PEG8-βAla-βAla-(NMe-D-Tyr)-Phe-(NMe-Leu)-Pro-(D-Ser)-Gln-2Nal-(D-Ala)-Tic-(NMe-Ser)] ({Lauroyl-PEG8-βAla-βAla}-[dNMeY]F[NMeL]P[dS]Q[2Nal][dA][Tic][NMeS]-OH), the EC50 was determined as 2.2 nM.
Take `CC(C)C[C@@H](C(=O)N1CCC[C@H]1C(=O)N[C@H](CO)C(=O)N[C@@H](CCC(N)=O)C(=O)N[C@@H](Cc1ccccc1)C(=O)N[C@H](C)C(=O)N1Cc2ccccc2C[C@@H]1C(=O)N(C)[C@@H](CO)C(=O)O)N(C)C(=O)[C@H](Cc1ccccc1)NC(=O)[C@H](N)Cc1ccc(O)cc1` [YW-182, (D-Tyr)-Phe-(NMe-Leu)-Pro-(D-Ser)-Gln-Phe-(D-Ala)-(D-Tic)-(NMe-Ser)] (H-[dY]F[NMeL]P[dS]QF[dA][dTic][NMeS]-OH): the EC50 came out at 41 nM.
Next, `CCN(C(=O)[C@H](Cc1ccccc1)NC(=O)[C@H](N)Cc1ccc(O)cc1)[C@@H](CC(C)C)C(=O)N1CCC[C@H]1C(=O)N[C@H](CO)C(=O)N[C@@H](CCC(N)=O)C(=O)N[C@@H](Cc1ccccc1)C(=O)N[C@H](C)C(=O)N1Cc2ccccc2C[C@H]1C(=O)N[C@@H](CO)C(=O)O` [YW-183, (D-Tyr)-Phe-(NEt-Leu)-Pro-(D-Ser)-Gln-Phe-(D-Ala)-Tic-Ser] (H-[dY]F[NEtLeu]P[dS]QF[dA][Tic]S-OH): 9.2 nM; `CCCN(C(=O)[C@H](Cc1ccccc1)NC(=O)[C@H](N)Cc1ccc(O)cc1)[C@@H](CC(C)C)C(=O)N1CCC[C@H]1C(=O)N[C@H](CO)C(=O)N[C@@H](CCC(N)=O)C(=O)N[C@@H](Cc1ccccc1)C(=O)N[C@H](C)C(=O)N1Cc2ccccc2C[C@H]1C(=O)N[C@@H](CO)C(=O)O` [YW-184, (D-Tyr)-Phe-(NPr-Leu)-Pro-(D-Ser)-Gln-Phe-(D-Ala)-Tic-Ser] (H-[dY]F[X6]P[dS]QF[dA][Tic]S-OH): 16 nM.
Next, `CCN(C(=O)[C@H](Cc1ccccc1)NC(=O)[C@@H](Cc1ccc(O)cc1)NC(=O)CCc1ccccc1)[C@@H](CC(C)C)C(=O)N1CCC[C@H]1C(=O)N[C@H](CO)C(=O)N[C@@H](CCC(N)=O)C(=O)N[C@@H](Cc1ccccc1)C(=O)N[C@H](C)C(=O)N1Cc2ccccc2C[C@H]1C(=O)N[C@@H](CO)C(=O)O` [YW-185, 3-Phenylpropanoyl-(D-Tyr)-Phe-(NEt-Leu)-Pro-(D-Ser)-Gln-Phe-(D-Ala)-Tic-Ser] (Hydrocinnamoyl-[dY]F[NEtLeu]P[dS]QF[dA][Tic]S-OH): 5.9 nM; `CCCN(C(=O)[C@H](Cc1ccccc1)NC(=O)[C@@H](Cc1ccc(O)cc1)NC(=O)CCc1ccccc1)[C@@H](CC(C)C)C(=O)N1CCC[C@H]1C(=O)N[C@H](CO)C(=O)N[C@@H](CCC(N)=O)C(=O)N[C@@H](Cc1ccccc1)C(=O)N[C@H](C)C(=O)N1Cc2ccccc2C[C@H]1C(=O)N[C@@H](CO)C(=O)O` [YW-186, 3-Phenylpropanoyl-(D-Tyr)-Phe-(NPr-Leu)-Pro-(D-Ser)-Gln-Phe-(D-Ala)-Tic-Ser] (Hydrocinnamoyl-[dY]F[X6]P[dS]QF[dA][Tic]S-OH): 11 nM; `CC(C)C[C@H](NC(=O)[C@H](Cc1ccccc1)NC(=O)[C@H](N)Cc1ccc(O)cc1)C(=O)N1CCC[C@H]1C(=O)N[C@H](CO)C(=O)N[C@@H](CCC(N)=O)C(=O)N[C@@H](Cc1ccccc1)C(=O)N[C@H](C)C(=O)N1Cc2ccccc2C[C@H]1C(=O)N[C@@H](CO)C(N)=O` [YW-189, (D-Tyr)-Phe-Leu-Pro-(D-Ser)-Gln-Phe-(D-Ala)-Tic-Ser-NH2] (H-[dY]FLP[dS]QF[dA][Tic]S-NH2; N-terminus assumed): 6.8 nM.
For `CC(C)C[C@@H](C(=O)N1CCC[C@H]1C(=O)N[C@H](CO)C(=O)N[C@@H](CCC(N)=O)C(=O)N[C@@H](Cc1ccccc1)C(=O)N[C@H](C)C(=O)N1Cc2ccccc2C[C@H]1C(=O)N[C@@H](CO)C(N)=O)N(C)C(=O)[C@H](Cc1ccccc1)NC(=O)[C@H](N)Cc1ccc(O)cc1` [YW-190, (D-Tyr)-Phe-(NMe-Leu)-Pro-(D-Ser)-Gln-Phe-(D-Ala)-Tic-Ser-NH2] (H-[dY]F[NMeL]P[dS]QF[dA][Tic]S-NH2; N-terminus assumed), the EC50 came to 2.7 nM.
Next, `CC(C)C[C@@H](C(=O)N1CCC[C@H]1C(=O)N[C@H](CO)C(=O)N[C@@H](CCC(N)=O)C(=O)N[C@@H](Cc1ccccc1)C(=O)N[C@H](C)C(=O)N1Cc2ccccc2C[C@H]1C(=O)N[C@@H](CO)C(=O)O)N(C)C(=O)[C@H](Cc1ccccc1)NC(=O)[C@@H](Cc1ccc(O)cc1)N(C)C` [YW-192, DiMe-(D-Tyr)-Phe-(NMe-Leu)-Pro-(D-Ser)-Gln-Phe-(D-Ala)-Tic-Ser] (X10-F[NMeL]P[dS]QF[dA][Tic]S-OH): 2.6 nM; `CCCCCC(=O)N[C@H](Cc1ccc(O)cc1)C(=O)N[C@@H](Cc1ccccc1)C(=O)N(C)[C@@H](CC(C)C)C(=O)N1CCC[C@H]1C(=O)N[C@H](CO)C(=O)N[C@@H](CCC(N)=O)C(=O)N[C@@H](Cc1ccccc1)C(=O)N[C@H](C)C(=O)N1Cc2ccccc2C[C@H]1C(=O)N[C@@H](CO)C(=O)O` [YW-193, Hexanoyl-(D-Tyr)-Phe-(NMe-Leu)-Pro-(D-Ser)-Gln-Phe-(D-Ala)-Tic-Ser] (Hexanoyl-[dY]F[NMeL]P[dS]QF[dA][Tic]S-OH): 1.4 nM; `CC(C)C[C@@H](C(=O)N1CCC[C@H]1C(=O)N[C@H](CO)C(=O)N[C@@H](CCC(N)=O)C(=O)N[C@@H](Cc1ccccc1)C(=O)N[C@H](C)C(=O)N1Cc2ccccc2C[C@H]1C(=O)N[C@@H](CO)C(=O)O)N(C)C(=O)[C@H](Cc1ccccc1)NC(=O)[C@@H](Cc1ccc(O)cc1)NC(=O)CC1CCCCC1` [YW-194, (2-Cyclohexylacetyl)-(D-Tyr)-Phe-(NMe-Leu)-Pro-(D-Ser)-Gln-Phe-(D-Ala)-Tic-Ser] (Cyclohexylacetyl-[dY]F[NMeL]P[dS]QF[dA][Tic]S-OH): 1.2 nM.

A word on the EC50: it is the midpoint of the concentration-response curve.
